Experimental data reported in patent US4359461A, “Mono-, di- and tri-adamantylcarbonyl- digalactopyranosyl- glucopyranosyl- fructofuranose sulfate salts” (American Cyanamid Company, priority 1981, dated 1982).
Counter-ions that a name gives are not always drawn.

Assays:
activated human C1 = activated human C1 (Homo sapiens, UniProt P09871); test: Test Code 026 (C1 inhibitor); type: biochemical; conditions: activity in wells, serial dilution assay; higher well number indicates higher activity
From the text: (§1) An active inhibitor protects C2 from C1 and C4; (ii) Test Code 035 (C3-C9 inhibitor)--This test determines the ability of the late components of human complement (C3-C9) to lyse EAC 142 in the presence of appropriate dilutions of the test compound. An active inhibitor protects EAC 142 from lysis by human C3-C9; (iii) Test Code 036 (C-Shunt inhibitor)--In this test human erythrocytes rendered fragile are lysed in autologous serum via the shunt pathway activated by cobra venom factor in the presence of appropriate dilutions of the test compound. Inhibition of the shunt pathway results in failure of lysis; (iv) Cap 50 Test--Here, appropriate amounts of the test compound are added to a pool of guinea pig serum in vitro, after which the complement level is determined in undiluted serum by the serum capillary tube assay of U.S. Pat. No. 3,876,376. The concentration of compound inhibiting 50% is reported; and (v) Guinea Pig Intraperitoneal Test (GPIP)--Guinea pigs weighing about 300 g are dosed intraperitoneally (i.p.) with 200 mg/kg of the test compound dissolved in saline and adjusted to pH 7-8. Approximately […], taken by orbital sinus puncture 30 minutes and one hour after injections, are collected directly into centrifuge tubes; 5 ml blood samples, taken by decapitation 2 hours after injection, are collected directly into diSPo® beakers. The samples were allowed to clot, centrifuged, and the resultant sera were assayed for complement activity using the capilllary complement assay. Percent inhibition is calculated by comparison with simultaneous controls. The results of the GPIP appear in Table I together with results of Test Code 026, 035, 036 and Cap 50.

[1] = system: late components of human complement (C3-C9); test: Test Code 035 (C3-C9 inhibitor), lysis of EAC 142; type: biochemical; conditions: activity in wells, serial dilution assay; higher well number indicates higher activity
From the text: as §1

shunt pathway = test: Test Code 036 (C-Shunt inhibitor), lysis of human erythrocytes in autologous serum via shunt pathway activated by cobra venom factor; type: biochemical; conditions: activity in wells, serial dilution assay; higher well number indicates higher activity
From the text: as §1

[2] = system: complement activity of sera; test: Guinea Pig Intraperitoneal Test (GPIP); type: in vivo; conditions: 200 mg/kg i.p.
From the text: as §1

Row | Compound | C1 026 Wells (activated human C1) | C-Late 035 Wells [1] | C-Shunt Inhibition 036 Wells (shunt pathway) | In Vivo Activity (Guinea pig) % Inhibition Intraperitoneal ([2]; 30 minutes) [%] | In Vivo Activity (Guinea pig) % Inhibition Intraperitoneal ([2]; 60 minutes) [%] | In Vivo Activity (Guinea pig) % Inhibition Intraperitoneal ([2]; 120 minutes) [%] | In Vivo Activity (Guinea pig) % Inhibition Intraperitoneal ([2]; 2 hours) [%] | In Vivo Activity (Guinea pig) % Inhibition Intraperitoneal ([2]; 6 hours) [%] | In Vivo Activity (Guinea pig) % Inhibition Intraperitoneal ([2]; 24 hours) [%]
1 | O=C(OC[C@H]1O[C@H](OC[C@H]2O[C@H](OC[C@H]3O[C@H](O[C@]4(COS(=O)(=O)O)O[C@H](COC(=O)C56CC7CC(CC(C7)C5)C6)[C@@H](OS(=O)(=O)O)[C@@H]4OS(=O)(=O)O)[C@H](OS(=O)(=O)O)[C@@H](OS(=O)(=O)O)[C@@H]3OS(=O)(=O)O)[C@H](OS(=O)(=O)O)[C@@H](OS(=O)(=O)O)[C@H]2OS(=O)(=O)O)[C@H](OS(=O)(=O)O)[C@@H](OS(=O)(=O)O)[C@H]1OS(=O)(=O)O)C12CC3CC(CC(C3)C1)C2 [6,6'"-Di-1-adamantanecarboxylate-O--α-D-galactopyranosyl(1→6] [6,6'"-Di-1-adamantanecarboxylate-O-α-D-galactopyranosyl(1→6)-O-α-D-galactopyranosyl(1→6)-O-α-D-glucopyranosyl-β-D-fructofuranose, dodecakis(H-sulfate), dodecasalt with trimethylamine] | +9 Wells | +1 Wells | +3 Wells | – | – | – | – | – | –
2 | O=C(OC[C@H]1O[C@H](OC[C@H]2O[C@H](OC[C@H]3O[C@H](O[C@]4(COC(=O)C56CC7CC(CC(C7)C5)C6)O[C@H](COC(=O)C56CC7CC(CC(C7)C5)C6)[C@@H](OS(=O)(=O)O)[C@@H]4OS(=O)(=O)O)[C@H](OS(=O)(=O)O)[C@@H](OS(=O)(=O)O)[C@@H]3OS(=O)(=O)O)[C@H](OS(=O)(=O)O)[C@@H](OS(=O)(=O)O)[C@H]2OS(=O)(=O)O)[C@H](OS(=O)(=O)O)[C@@H](OS(=O)(=O)O)[C@H]1OS(=O)(=O)O)C12CC3CC(CC(C3)C1)C2 [1,6-Bis-O-(1-adamantylcarbonyl)-β-D-fructofuranosyl-6-O-1-adamantylcarbonyl-O-α-D-galactopyranosyl(1→6)-O-α-D-galactopyranosyl(1→6)-α-D-glucopyranoside, undecakis(H-sulfate), undecasodium salt] | +6 Wells | +1 Wells | +3 Wells | 11 | 12 | 72 | – | – | –
3 | O=C(OC[C@H]1O[C@@](COS(=O)(=O)O)(O[C@H]2O[C@H](CO[C@H]3O[C@H](CO[C@H]4O[C@H](COS(=O)(=O)O)[C@H](OS(=O)(=O)O)[C@H](OS(=O)(=O)O)[C@H]4OS(=O)(=O)O)[C@H](OS(=O)(=O)O)[C@H](OS(=O)(=O)O)[C@H]3OS(=O)(=O)O)[C@@H](OS(=O)(=O)O)[C@H](OS(=O)(=O)O)[C@H]2OS(=O)(=O)O)[C@@H](OS(=O)(=O)O)[C@@H]1OS(=O)(=O)O)C12CC3CC(CC(C3)C1)C2 [6-O-(1-Adamantylcarbonyl)-β-D-fructofuranosyl-O-α-D-galactopyranosyl(1→6)-O-α-D-galactopyranosyl(1→6)-α-D-glucopyranoside, tridecakis(H-sulfate), tridecasalt with trimethylamine] | – | – | +5 Wells | – | – | – | – | – | –
4 | O=C(OC[C@H]1O[C@@](COS(=O)(=O)O)(O[C@H]2O[C@H](CO[C@H]3O[C@H](CO[C@H]4O[C@H](COS(=O)(=O)O)[C@H](OS(=O)(=O)O)[C@H](OS(=O)(=O)O)[C@H]4OS(=O)(=O)O)[C@H](OS(=O)(=O)O)[C@H](OS(=O)(=O)O)[C@H]3OS(=O)(=O)O)[C@@H](OS(=O)(=O)O)[C@H](OS(=O)(=O)O)[C@H]2OS(=O)(=O)O)[C@@H](OS(=O)(=O)O)[C@@H]1OS(=O)(=O)O)C12CC3CC(CC(C3)C1)C2 [6-O--(1-Adamantylcarbonyl)-β-D-fructofuranosyl-O--α-D-galact] [6-O-(1-Adamantylcarbonyl)-β-D-fructofuranosyl-O-α-D-galactopyranosyl(1→6)-O-α-D-galactopyranosyl(1→6)-α-D-glucopyranoside, tridecakis(H-sulfate), tridecasodium salt] | – | +2 Wells | – | – | – | – | 78 | 71 | 59
5 | O=C(OC[C@H]1O[C@@](COS(=O)(=O)O)(O[C@H]2O[C@H](CO[C@H]3O[C@H](CO[C@H]4O[C@H](COS(=O)(=O)O)[C@H](OS(=O)(=O)O)[C@H](OS(=O)(=O)O)[C@H]4OS(=O)(=O)O)[C@H](OS(=O)(=O)O)[C@H](OS(=O)(=O)O)[C@H]3OS(=O)(=O)O)[C@@H](OS(=O)(=O)O)[C@H](OS(=O)(=O)O)[C@H]2OS(=O)(=O)O)[C@@H](OS(=O)(=O)O)[C@@H]1OS(=O)(=O)O)C12CC3CC(CC(C3)C1)C2 [6-O--(1-Adamantylcarbonyl)-β-D-fructofuranosyl-O--α-D-galact] [6-O-(1-Adamantylcarbonyl)-β-D-fructofuranosyl-O-α-D-galactopyranosyl(1→6)-O-α-D-galactopyranosyl(1→6)-α-D-glucopyranoside, tridecakis(H-sulfate), tridecasalt with trimethylamine] | +10 Wells | – | – | – | – | – | – | – | –
6 | O=C(OC[C@H]1O[C@H](OC[C@H]2O[C@H](OC[C@H]3O[C@H](O[C@]4(COS(=O)(=O)O)O[C@H](COC(=O)C56CC7CC(CC(C7)C5)C6)[C@@H](OS(=O)(=O)O)[C@@H]4OS(=O)(=O)O)[C@H](OS(=O)(=O)O)[C@@H](OS(=O)(=O)O)[C@@H]3OS(=O)(=O)O)[C@H](OS(=O)(=O)O)[C@@H](OS(=O)(=O)O)[C@H]2OS(=O)(=O)O)[C@H](OS(=O)(=O)O)[C@@H](OS(=O)(=O)O)[C@H]1OS(=O)(=O)O)C12CC3CC(CC(C3)C1)C2 [6,6'"-Di-1-admantanecarboxylate-O--α-D-galactopyranosyl(1→6)] [6,6'"-Di-1-adamantanecarboxylate-O-α-D-galactopyranosyl(1→6)-O-α-D-galactopyranosyl(1→6)-O-α-D-glucopyranosyl-β-D-fructofuranose, dodecakis(H-sulfate), dodecasodium salt] | – | – | +2 Wells | 72 | 92 | 97 | – | – | –
